How the values were obtained:
Test in all cases: relative viability (nuclei count vs DMSO), 5 days (fraction); higher = more cells survive
[1] = compound: C1/C(=C\C2=CC=CS2)/C(=O)/C(=C/C3=CC=CS3)/C1 + C[C@@H](Oc1cc(-c2cnn(C3CCNCC3)c2)cnc1N)c1c(Cl)ccc(F)c1Cl [Crizotinib] (partner 1 µM)
Procedure, shortened: (§1)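 The day after seeding in 1536-well plates, lung cancer cell lines were treated by pin tool with a single drug, or with a fixed anchor-drug dose together with five library-drug doses (not always all listed) in √10 steps. After 5 days, a combined fix-and-stain solution (final 0.05% Triton X-100, 1% formaldehyde, 1 ug/ml Hoechst) was added. Nuclei counted on 4× images gave relative viability as treated counts over vehicle counts, reported as the median of duplicate plates.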

[2] = compound: C1/C(=C\C2=CC=CS2)/C(=O)/C(=C/C3=CC=CS3)/C1 + C[C@]1(O)C[C@@H](c2nc(-c3ccc4ccc(-c5ccccc5)nc4c3)c3c(N)nccn32)C1 [Linsitinib] (partner 1 µM)
Procedure, shortened: as §1

[3] = compound: C1/C(=C\C2=CC=CS2)/C(=O)/C(=C/C3=CC=CS3)/C1 + Cc1nc(NC(=O)N2CCC[C@H]2C(N)=O)sc1-c1ccnc(C(C)(C)C(F)(F)F)c1 [Alpelisib] (partner 2 µM)
Procedure, shortened: as §1

[4] = compound: C1/C(=C\C2=CC=CS2)/C(=O)/C(=C/C3=CC=CS3)/C1 + O=C(c1cc(Cc2n[nH]c(=O)c3ccccc23)ccc1F)N1CCN(C(=O)C2CC2)CC1 [Olaparib] (partner 8 µM)
Procedure, shortened: as §1

Cell Line	relative viability ([1]; first compound 0.2 µM)	relative viability ([1]; first compound 0.6325 µM)	relative viability ([1]; first compound 2 µM)	relative viability ([1]; first compound 6.325 µM)	relative viability ([1]; first compound 20 µM)	relative viability ([2]; first compound 0.2 µM)	relative viability ([2]; first compound 0.6325 µM)	relative viability ([2]; first compound 2 µM)	relative viability ([2]; first compound 6.325 µM)	relative viability ([2]; first compound 20 µM)	relative viability ([3]; first compound 0.2 µM)	relative viability ([3]; first compound 0.6325 µM)	relative viability ([3]; first compound 2 µM)	relative viability ([3]; first compound 6.325 µM)	relative viability ([3]; first compound 20 µM)	relative viability ([4]; first compound 0.2 µM)	relative viability ([4]; first compound 0.6325 µM)	relative viability ([4]; first compound 2 µM)	relative viability ([4]; first compound 6.325 µM)	relative viability ([4]; first compound 20 µM)
NCI-H1437	0.954	0.886	0.828	0.902	0.824	1.1	1.04	0.993	0.984	0.986	0.985	0.923	0.988	0.639	0.901	0.667	0.618	0.634	0.563	0.617
NCI-H1651	0.863	0.876	0.893	0.816	0.855	1.11	1.06	0.92		1.05	1.11	0.899	1.03		0.975	0.174	0.207	0.197	0.19	0.229
NCI-H1666	1.23	1.19	1.09	0.643	0.974	0.828	0.762	0.776	0.481	0.825	1.18	0.936	0.972	0.712	0.852	0.76	0.769	0.77	0.69	0.708
NCI-H1703	0.94	1.12	0.919	0.585	0.737	1.42	0.978	0.633	0.887	0.725	0.41	0.453	0.334	0.287	0.318	0.547	0.54	0.536	0.423	0.574
NCI-H1734	0.617	0.78	0.631	0.606	0.731	0.902	0.931	0.947	0.782	0.875	0.725	0.666	0.713	0.588	0.682	0.621	0.597	0.596	0.528	0.629
NCI-H1755	0.867	0.896	0.822	0.704	0.831	1.06	1.07	1.04	0.818	0.939	0.951	0.963	1	0.796	0.929	0.88	0.907	0.916	0.749	0.877
NCI-H1792	0.991	0.998	1.07		1.06	0.523	0.618	0.617		0.451	0.803	0.763	0.711		0.697	0.499	0.492	0.627	0.279	0.474
NCI-H1915	0.86	0.951	0.912	0.841	0.893	1.14	1.08	1.09	1.04	1.1	1.05	1.06	1.09	0.976	1.03	0.264	0.247	0.307	0.241	0.26
NCI-H1944	1.18	1.12	1.09	1.01	0.977	1.32	1.09	1.23	1.17	1.01	0.864	0.8	0.855	0.713	0.818	0.435	0.385	0.392		0.41
NCI-H1975	0.988	0.957	1.02	0.718	0.971	1.02	0.947	0.957	0.808	0.9	0.736	0.627	0.617	0.592	0.62	0.757	0.795	0.855	0.538	0.782
NCI-H1993	0.897	0.9	0.784	0.63	0.743	0.683	0.694	0.672	0.679	0.792	0.698	0.655	0.633	0.703	0.637	1.1	0.969	1.17	0.958	0.85
NCI-H2009	1.11	1.09	1.02	0.971	1.06	1.28	1.2	1.15	0.712	1.13	0.991	1.2	1.16	1.14	1.13	0.71	0.683	0.701		0.707
NCI-H2023	0.685	0.602	0.762	0.652	0.684	0.794	0.684	0.668	0.731	0.679	0.706	0.595	0.63	0.559	0.619	0.457	0.501	0.459	0.459	0.417
NCI-H2085	0.789	0.935	0.83	0.856	0.952	1.05	0.941	0.805	0.797	1.05	1.22	1.02	1.04	0.785	0.97	0.764	0.774	0.808	0.709	0.765
NCI-H2087	0.867	0.901	0.746	0.735	0.993	1.06	1.05	0.928	0.678	0.936	1.24	1.14	1.04	0.917	1.11	0.708	0.528	0.699	0.561	0.594
NCI-H2126	1	1.1	0.989	0.887	0.986	0.673	0.698	0.754	0.553	0.709	0.785	0.833	0.805	0.69	0.786	0.951	0.926	0.883	0.882	0.85
NCI-H2228	0.669	0.528	0.515	0.374	0.441	0.764	0.628	1.16	0.563	0.631	0.787	0.692	0.745	0.619	0.869	0.69	0.431	0.606	0.543	0.482
